Source: patent publication EP0768085A1, “ANTIBACTERIAL AGENT” (DAIICHI PHARMACEUTICAL CO., LTD., priority 1994, dated 1996)
In brackets after ≈: the same amount, converted by molar mass.

Legend:
Format in all cases: cell-based
[1] = test system: methicillin-resistant Staphylococcus aureus (MRSA) isolated from humans; assay: Antibacterial activity (IC), Mueller-Hinton agar containing the sample (Example 8, Table 43); settings: for IC: 18 hours; for MIC: Staphylococcus aureus, MRSA, 18 h
Procedure: (§1) The antibacterial action was evaluated by the inhibitory concentration (hereinafter abbreviated as IC) at which propagation of the bacteria cultured at 37°C for 18 hours was inhibited. Inhibition was determined by the turbidity of the medium. The expressions "IC≤100", "≤10", and "≤1" indicate that MIC-equivalent values obtained at the succesive […] dilution of the sample are 100-10 µg/ml, 10-1 µg/ml, and not more than 1 µg/ml, respectively. […] (In the subsequent Examples, the same rule applies correspondingly.) Table 39
(§2) A suitable amount of a sample was dissolved in dimethylsulfoxide (DMSO), after which the resulting solution was diluted with the same amount of sterilized distilled water to prepare a bulk sample of 1,000 µg/ml. Separately, a bacterial liquid for the test (methicillin-resistant Staphylococcus aureus (MRSA) isolated from humans) which had been cultured in Mueller-Hinton broth (product of DIFCO) was prepared and inoculated to a Mueller-Hinton agar (product of DIFCO) containing the sample so that the final inoculation amount of 10^6 CFU/ml was achieved. The final concentrations of the samples were 100, 10, and 1 µg/ml.
(§3) After culturing at 37°C for 18 hours, the antibacterial activity was evaluated in terms of IC in a manner similar to that described in Example 4.

[2] = test system: Staphylococcus aureus 209-P; assay: Antibacterial activity (IC), Mueller-Hinton broth, 96-well microplate (Example 4, Table 39); settings: 37°C, 18 hours
Procedure: (§4) A suitable amount of a sample was dissolved in dimethylsulfoxide (DMSO), and the resultant solution was diluted with the same amount of sterilized distilled water to prepare a bulk sample of 1,000 µg/ml. Mueller-Hinton broth (product of DIFCO) was dispensed into each well of 96-well microplate. Thereafter, the bulk specimen was added to the first well of a row, and successively diluted (10-fold each time) with sterilized distilled water. Separately, a bacterial cell suspension for the test (Staphylococcus aureus 209-P) which had been cultured in the above-mentioned broth overnight at 37°C was inoculated to each well so that the final inoculation amount of 10^6 CFU/ml was attained. The final concentrations of the samples were 100, 10, and 1 µg/ml.
as §1

[3] = test system: Staphylococcus aureus TI-1; assay: Antibacterial activity (IC), broth microplate as in Example 4 (Example 5, Table 40); settings: for MIC: TI1, 18 h
Procedure: as §4, §1
In a manner similar to that described in Example 4, antibacterial activity of the invention compound was determined. The bacterium used for the test was Staphylococcus aureus TI-1.

[4] = test system: Pasteurella multocida (Kobe-6); assay: Antibacterial activity (IC), broth microplate as in Example 4 (Example 6, Table 41); settings: origin pig; for MIC: 18 h
Procedure: as §4, §1
In a manner similar to that described in Example 4, antibacterial activity of the invention compound was determined. The bacterium used for the test was Pasteurella Kobe-6 (origin: pig; Pasteurella multocida).

[5] = test system: Bordetella bronchiseptica (SM2-4); assay: Antibacterial activity (IC), broth microplate as in Example 4 (Example 7, Table 42); settings: for MIC: 18 h
Procedure: as §4, §1
In a manner similar to that described in Example 4, antibacterial activity of the invention compound was determined. The bacterium used for the test was Bordetella bronchiseptica (SM2-4).

Pasteurella from fish = assay: Antibacterial activity (IC), agar as in Example 8, media with 1.5% NaCl, 25°C (Example 20, Tables 53-55)
In short: (§5)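 Growth inhibition was scored by turbidity after culture at 25°C, with IC bands set from 2-fold-dilution MIC-equivalents. Samples were tested at final 100, 10 and 1 µg/ml in Mueller-Hinton agar with 1.5% NaCl, seeded with 10^6 CFU/ml of the fish isolates.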

Enterococcus from fish = assay: as above
In short: as §5

[6] = test system: methicillin-resistant Staphylococcus aureus (MRSA) from humans; assay: Antibacterial activity (IC), agar as in Example 8 (Example 19, Table 52); settings: 18 h
In short: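 MRSA human isolate at 10^6 CFU/ml on Mueller-Hinton agar containing compound at 100, 10 or 1 µg/ml, grown 18 h at 37 °C. IC is the lowest tested level that inhibited growth, binned as ≤100, ≤10 or ≤1 µg/ml.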

[7] = test system: Pasteurella multocida (Kobe-6); assay: Antibacterial activity (IC), agar as in Example 8 (Example 17, Table 50); settings: 18 h, origin pig
In short: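 Agar dilution on Mueller-Hinton agar with compound at 100, 10 and 1 µg/ml, inoculated at 10^6 CFU/ml with pig-origin strain Kobe-6. After 18 h at 37 °C, IC scored from turbidity and reported as a band (≤100, ≤10, ≤1 µg/ml).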

[8] = test system: Streptococcus aureus (TI-1); assay: Antibacterial activity (IC), agar as in Example 8 (Example 16, Table 49); settings: 18 h
In short: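 Compound at final 100, 10 or 1 µg/ml in Mueller-Hinton agar, inoculated with […] aureus (TI-1) at 10^6 CFU/ml and cultured 37°C for 18 h. Inhibition read from medium turbidity; IC given as 100-10, 10-1 or ≤1 µg/ml ranges from 2-fold dilution.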

[9] = test system: Staphylococcus aureus (209-P); assay: Antibacterial activity (IC), agar as in Example 8 (Example 15, Table 48); settings: 18 h
In short: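 Samples in DMSO, diluted with sterile water, incorporated into Mueller-Hinton agar at 1, 10 and 100 µg/ml final. Bacteria seeded at 10^6 CFU/ml and grown 18 h at 37°C. Inhibition read as turbidity; values reported as IC ranges rather than exact MICs.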

[10] = test system: Bordetella bronchiseptica (S1); assay: Antibacterial activity (IC), agar as in Example 8 (Example 18, Table 51); settings: 18 h
Procedure: as §1, §2, §3
(§6) In a manner similar to that described in Example 8, antibacterial activity of the invention compound was determined. The bacterium used for the test was Bordetella bronchiseptica (S1) and Bordetella bronchiseptica (SM2-4).

[11] = test system: Bordetella bronchiseptica (SM2-4); assay: as above; settings: 18 h
Procedure: as §1, §2, §3, §6

[12] = Enterococcus Seriolicida KG86050
[13] = Enterococcus Seriolicida MS89060
[14] = Enterococcus Seriolicida MS89064
[15] = Enterococcus Seriolicida MS89066
[16] = Enterococcus Seriolicida MS89068
[17] = Enterococcus Seriolicida SE94-001
[18] = Enterococcus Seriolicida SE94-002
[19] = Enterococcus Seriolicida SE94-003
[20] = Enterococcus Seriolicida SE94-004
[21] = Enterococcus Seriolicida SE94-005

| Compound | IC (Enterococcus from fish; Enterococcus Seriolicida HI) | IC (Enterococcus from fish; [12]) | IC (Enterococcus from fish; [13]) | IC (Enterococcus from fish; [14]) | IC (Enterococcus from fish; [15]) | IC (Enterococcus from fish; [16]) | IC (Enterococcus from fish; [17]) | IC (Enterococcus from fish; [19]) | IC (Enterococcus from fish; [20]) | IC (Enterococcus from fish; [21]) | MIC ([1]; MRSA strain 891179, 37°C) [µg/mL] | MIC ([1]; MRSA strain 891185, 37°C) [µg/mL] | MIC ([1]; MRSA strain 891187, 37°C) [µg/mL] | MIC ([1]; MRSA strain 891192, 37°C) [µg/mL] | MIC ([1]; MRSA strain 900048, 37°C) [µg/mL] | MIC ([1]; MRSA strain 900056, 37°C) [µg/mL] | MIC [2] [µg/mL] | MIC [3] [µg/mL] | MIC [4] [µg/mL] | MIC [5] [µg/mL] | other results |
| --- | --- | --- | --- | --- | --- | --- | --- | --- | --- | --- | --- | --- | --- | --- | --- | --- | --- | --- | --- | --- | --- |
| 4-[2-(2-chloro-4-trifluoromethylphenoxy)-4-methylphenoxy]-2-(3,4-dichlorophenyl)-3-oxopentanonitrile and 4-[2-(2-chloro-4-trifluoromethylphenoxy)-5-methylphenoxy]-2-(3,4-dichlorophenyl)-3-oxopentanonitrile [Compound No. 308] | ≤ 1 µg/mL | ≤ 1 µg/mL | ≤ 1 µg/mL | ≤ 1 µg/mL | ≤ 1 µg/mL | ≤ 1 µg/mL | ≤ 1 µg/mL | ≤ 1 µg/mL | ≤ 1 µg/mL | ≤ 1 µg/mL | – | – | – | – | – | – | – | – | – | – | IC ([1]; MRSA strain 891179, 37°C): ≤ 1 µg/mL; IC ([1]; MRSA strain 891185, 37°C): ≤ 1 µg/mL; IC ([1]; MRSA strain 891187, 37°C): ≤ 1 µg/mL; IC ([1]; MRSA strain 891192, 37°C): ≤ 1 µg/mL; IC ([1]; MRSA strain 900048, 37°C): ≤ 1 µg/mL; IC ([1]; MRSA strain 900056, 37°C): ≤ 1 µg/mL; IC [2]: 308 (≤1) (not more than 1 µg/ml); IC [3]: 308 (≤1) (not more than 1 µg/ml); IC [4]: 308 (≤10) (10-1 µg/ml); IC [5]: 308 (≤100) (MIC-equivalent values obtained at the succesive 2-fold dilution of the sample are 100-10 µg/ml); IC (Pasteurella from fish; Pasteurella piscicida KP94-02): ≤; IC (Pasteurella from fish; Pasteurella piscicida KP94-04): ≤; IC (Pasteurella from fish; Pasteurella piscicida KP94-05): ≤; IC (Pasteurella from fish; Pasteurella piscicida KP94-06): ≤; IC (Enterococcus from fish; [18]): ≤ 1 µg/mL |
| Cc1cc(Oc2ccc(C(F)(F)F)cc2Cl)cc(OC(C)C(=O)C(C#N)c2ccc(Cl)c(Cl)c2)c1 (centres unmarked) [Compound No. 112, 4-[3-(2-chloro-4-trifluoromethylphenoxy)-5-methylphenoxy]-2-(3,4-dichlorophenyl)-3-oxopentanonitrile] | ≤10 (10-1 µg/ml) | ≤10 (10-1 µg/ml) | ≤10 (10-1 µg/ml) | ≤10 (10-1 µg/ml) | ≤10 (10-1 µg/ml) | ≤10 (10-1 µg/ml) | ≤10 (10-1 µg/ml) | ≤10 (10-1 µg/ml) | ≤10 (10-1 µg/ml) | ≤10 (10-1 µg/ml) | – | – | – | – | – | – | – | – | – | – | MIC ([6]; MRSA strain 891179): ≤ 1 µg/mL; MIC ([6]; MRSA strain 891185): ≤ 1 µg/mL; MIC ([6]; MRSA strain 891187): ≤ 1 µg/mL; MIC ([6]; MRSA strain 891192): ≤ 1 µg/mL; MIC ([6]; MRSA strain 900048): ≤ 1 µg/mL; MIC ([6]; MRSA strain 900056): ≤ 1 µg/mL; MIC [7]: ≤ 1 µg/mL; MIC [8]: ≤ 1 µg/mL; MIC (Pasteurella from fish; Pasteurella piscicida KP94-02): 1 to 10 µg/mL (≈ 1.84 to 18.4 µM); MIC (Enterococcus from fish; [18]): 1 to 10 µg/mL (≈ 1.84 to 18.4 µM); MIC [9]: ≤ 1 µg/mL; MIC [10]: 10 to 100 µg/mL (≈ 18.4 to 184 µM); MIC [11]: 10 to 100 µg/mL (≈ 18.4 to 184 µM) |
| Cc1cc(OC(C)C(=O)C(C#N)c2ccc(Cl)c(Cl)c2)ccc1Oc1ccc(C(F)(F)F)cc1Cl (centres unmarked) [compound 44] | – | – | – | – | – | – | – | – | – | – | ≤ 1 | ≤ 1 | ≤ 1 | ≤ 1 | ≤ 1 | ≤ 1 | ≤ 1 | ≤ 1 | 1 to 10 (≈ 1.84 to 18.4 µM) | 10 to 100 (≈ 18.4 to 184 µM) | – |
| Cc1cc(OC(C)C(=O)C(C#N)c2cccc(Br)c2)ccc1Oc1ccc(C(F)(F)F)cc1Cl (centres unmarked) [compound 45] | – | – | – | – | – | – | – | – | – | – | 1 to 10 (≈ 1.81 to 18.1 µM) | 1 to 10 (≈ 1.81 to 18.1 µM) | 1 to 10 (≈ 1.81 to 18.1 µM) | 1 to 10 (≈ 1.81 to 18.1 µM) | 1 to 10 (≈ 1.81 to 18.1 µM) | 1 to 10 (≈ 1.81 to 18.1 µM) | 1 to 10 (≈ 1.81 to 18.1 µM) | ≤ 1 | 1 to 10 (≈ 1.81 to 18.1 µM) | 10 to 100 (≈ 18.1 to 181 µM) | – |
